# Several values for one entry are separate records, joined by “and”; a condition that tells them apart may be missing. Identical values can stand only once. Inconclusive results and toxic doses are left out.
# Test system: P388 leukemia ip, CD2F1 mice, survival T/C
# Experiment: NCI In Vivo Anticancer Drug Screen. Data for tumor model P388 Leukemia (intraperitoneal) in CD2F1 (CDF1) mice
# Settings: endpoint: median survival time, higher = longer survival
# Method in brief: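 Mice carrying the transplanted tumor received test compound or vehicle. Survival was recorded in each group, and the value is the treated-group measurement divided by that of the vehicle-treated control group.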
# [1] = dose: 50.0 mg/kg/injection, schedule: Q01DX009 (ip), vehicle: Klucel (hydroxypropylcellulose) (HPC)
# [2] = dose: 100.0 mg/kg/injection, schedule: Q01DX009 (ip), vehicle: Klucel (hydroxypropylcellulose) (HPC)
# [3] = dose: 50.0 mg/kg/injection, schedule: Q01DX005 (ip), vehicle: Klucel (hydroxypropylcellulose) (HPC)
# [4] = dose: 100.0 mg/kg/injection, schedule: Q01DX005 (ip), vehicle: Klucel (hydroxypropylcellulose) (HPC)
# [5] = dose: 200.0 mg/kg/injection, schedule: Q01DX005 (ip), vehicle: Klucel (hydroxypropylcellulose) (HPC)
# [6] = dose: 100.0 mg/kg/injection, schedule: Q01DX009 (ip), vehicle: saline with Tween-80
# [7] = dose: 200.0 mg/kg/injection, schedule: Q01DX009 (ip), vehicle: saline with Tween-80
# [8] = dose: 60.0 mg/kg/injection, schedule: Q01DX005 (ip), vehicle: saline with Tween-80
# [9] = dose: 120.0 mg/kg/injection, schedule: Q01DX005 (ip), vehicle: saline with Tween-80
# [10] = dose: 6.25 mg/kg/injection, schedule: Q01DX009 (ip), vehicle: distilled water + Tween-80
# [11] = dose: 12.5 mg/kg/injection, schedule: Q01DX009 (ip), vehicle: distilled water + Tween-80
# [12] = dose: 25.0 mg/kg/injection, schedule: Q01DX009 (ip), vehicle: distilled water + Tween-80
# [13] = dose: 50.0 mg/kg/injection, schedule: Q01DX009 (ip), vehicle: distilled water + Tween-80
structure (smiles),measurement,setting,value
CCCCCCCNC1=C(N2CC2)C(=O)C(NCCCCCCC)=C(N2CC2)C1=O,T/C,"dose: 1.25 mg/kg/injection, schedule: Q01DX009 (ip), vehicle: saline",100 % of control
same,T/C,"dose: 2.5 mg/kg/injection, schedule: Q01DX009 (ip), vehicle: saline",105 % of control and 107 % of control
same,T/C,"dose: 5.0 mg/kg/injection, schedule: Q01DX009 (ip), vehicle: saline",105 % of control and 106 % of control
same,T/C,"dose: 10.0 mg/kg/injection, schedule: Q01DX009 (ip), vehicle: saline",106 % of control and 94 % of control
same,T/C,"dose: 20.0 mg/kg/injection, schedule: Q01DX009 (ip), vehicle: saline",115 % of control and 90 % of control
COc1ccc(C(=O)NC(C(N)=O)C(N)=O)cc1,T/C,"dose: 100.0 mg/kg/injection, schedule: Q04DX003 (ip), vehicle: saline",99 % of control
same,T/C,"dose: 200.0 mg/kg/injection, schedule: Q04DX003 (ip), vehicle: saline",99 % of control
same,T/C,"dose: 400.0 mg/kg/injection, schedule: Q04DX003 (ip), vehicle: saline",97 % of control
Nc1ncnc2c1ccn2C1OC(CO)C(O)C1O (stereo not drawn),T/C,"dose: 0.44 mg/kg/injection, schedule: Q01DX001 (ip), vehicle: saline",120 % of control
same,T/C,"dose: 0.5 mg/kg/injection, schedule: Q01DX009 (ip), vehicle: water",113 % of control
same,T/C,"dose: 0.88 mg/kg/injection, schedule: Q01DX001 (ip), vehicle: saline",110 % of control
same,T/C,"dose: 8.0 mg/kg/injection, schedule: Q01DX010 (sc), vehicle: saline",105 % of control
same,T/C,"dose: 16.0 mg/kg/injection, schedule: Q01DX010 (sc), vehicle: saline",110 % of control
same,T/C,"dose: 55.0 micrograms/kg/injection, schedule: Q07DX Z (ip), vehicle: saline",90 % of control
same,T/C,"dose: 110.0 micrograms/kg/injection, schedule: Q07DX Z (ip), vehicle: saline",105 % of control
same,T/C,"dose: 220.0 micrograms/kg/injection, schedule: Q07DX Z (ip), vehicle: saline",105 % of control
same,T/C,"dose: 440.0 micrograms/kg/injection, schedule: Q07DX Z (ip), vehicle: saline",105 % of control
Cc1ccc2c(c1)sc1n[nH]c(=O)n12,T/C,[1],100 % of control
same,T/C,[2],105 % of control
CN(CC1CNc2nc(N)[nH]c(=O)c2N1C=O)c1ccc(C(=O)NC(CCC(=O)O)C(=O)O)cc1 (stereo not drawn),T/C,"dose: 50.0 mg/kg/injection, schedule: Q01DX009 (ip), vehicle: sodium bicarbonate",101 % of control
same,T/C,"dose: 100.0 mg/kg/injection, schedule: Q01DX009 (ip), vehicle: sodium bicarbonate",106 % of control
same,T/C,"dose: 200.0 mg/kg/injection, schedule: Q01DX009 (ip), vehicle: sodium bicarbonate",108 % of control
CC(=O)/C=C/C=C/c1ccc2c(c1)OC(CO)C(c1ccc(O)c(O)c1)O2 (stereo not drawn),T/C,[3],95 % of control
same,T/C,[4],90 % of control and 95 % of control
same,T/C,[5],87 % of control
same,T/C,"dose: 400.0 mg/kg/injection, schedule: Q01DX005 (ip), vehicle: Klucel (hydroxypropylcellulose) (HPC)",87 % of control
COc1ccc(OCC(O)CN2CCN(c3ccc(Cl)cc3)CC2)cc1 (stereo not drawn),T/C,[6],99 % of control
same,T/C,"dose: 100.0 mg/kg/injection, schedule: Q04DX003 (ip), vehicle: Klucel (hydroxypropylcellulose) (HPC)",100 % of control
same,T/C,[7],101 % of control
same,T/C,"dose: 200.0 mg/kg/injection, schedule: Q04DX003 (ip), vehicle: Klucel (hydroxypropylcellulose) (HPC)",100 % of control
same,T/C,"dose: 400.0 mg/kg/injection, schedule: Q01DX009 (ip), vehicle: saline with Tween-80",92 % of control
CC(C(=O)O)c1cn(Cc2ccccc2)c2ccccc12 (stereo not drawn),T/C,[8],100 % of control
same,T/C,[9],102 % of control
same,T/C,"dose: 240.0 mg/kg/injection, schedule: Q01DX005 (ip), vehicle: saline with Tween-80",96 % of control
C=C(C#N)C1OC2OC(C)(C)OC2C1OCCCCCCCC (stereo not drawn),T/C,"dose: 100.0 mg/kg/injection, schedule: Q04DX002 (ip), vehicle: saline with Tween-80",106 % of control
same,T/C,"dose: 200.0 mg/kg/injection, schedule: Q04DX002 (ip), vehicle: saline with Tween-80",106 % of control
CC(C)N1C(=O)C2C3C=CC(C3)C2C1=O (stereo not drawn),T/C,"dose: 25.0 mg/kg/injection, schedule: Q04DX002 (ip), vehicle: saline with Tween-80",94 % of control
same,T/C,"dose: 50.0 mg/kg/injection, schedule: Q04DX002 (ip), vehicle: saline with Tween-80",108 % of control
CC(=O)OCC1OC(n2cc(CI)nn2)C(OC(C)=O)C(OC(C)=O)C1OC(C)=O (stereo not drawn),T/C,[10],102 % of control and 103 % of control
same,T/C,[11],103 % of control and 96 % of control
same,T/C,[12],111 % of control and 115 % of control
same,T/C,[13],102 % of control and 115 % of control
same,T/C,"dose: 100.0 mg/kg/injection, schedule: Q01DX009 (ip), vehicle: distilled water + Tween-80",115 % of control
CCOC(=O)C(CC)Oc1ccc(Cl)cc1 (stereo not drawn),T/C,[1],102 % of control
same,T/C,[2],89 % of control
CCOC(=O)C1(c2ccccc2)C(=O)Oc2ccccc21 (stereo not drawn),T/C,"dose: 50.0 mg/kg/injection, schedule: Q01DX009 (ip), vehicle: saline with Tween-80",107 % of control
same,T/C,[6],124 % of control
same,T/C,[7],106 % of control
c1nc(Sc2ncnc3nc[nH]c23)c2[nH]cnc2n1,T/C,"dose: 180.0 mg/kg/injection, schedule: Q01DX009 (ip), vehicle: Klucel (hydroxypropylcellulose) (HPC)",100 % of control
same,T/C,"dose: 266.0 mg/kg/injection, schedule: Q01DX009 (ip), vehicle: Klucel (hydroxypropylcellulose) (HPC)",100 % of control
same,T/C,"dose: 400.0 mg/kg/injection, schedule: Q01DX009 (ip), vehicle: Klucel (hydroxypropylcellulose) (HPC)",100 % of control
CN(C)C[C@@H]1OCCOCCO[C@@H](CN(C)C)[C@H](CN(C)C)OCCOCCO[C@H]1CN(C)C,T/C,"dose: 50.0 mg/kg/injection, schedule: Q01DX005 (ip), vehicle: saline",98 % of control
same,T/C,"dose: 100.0 mg/kg/injection, schedule: Q01DX005 (ip), vehicle: saline",88 % of control
same,T/C,"dose: 200.0 mg/kg/injection, schedule: Q01DX005 (ip), vehicle: saline",90 % of control
[Co].[N-]=C=S.[N-]=C=S.[N-]=C=S.[N-]=C=S,T/C,"dose: 9.5 mg/kg/injection, schedule: Q01DX009 (ip), vehicle: saline",101 % of control
same,T/C,"dose: 19.0 mg/kg/injection, schedule: Q01DX009 (ip), vehicle: saline",93 % of control
same,T/C,"dose: 38.0 mg/kg/injection, schedule: Q01DX009 (ip), vehicle: saline",104 % of control
same,T/C,"dose: 50.0 mg/kg/injection, schedule: Q01DX009 (ip), vehicle: saline",161 % of control
COC(=O)Nc1cn2ccsc2n1,T/C,"dose: 50.0 mg/kg/injection, schedule: Q01DX005 (ip), vehicle: saline with Tween-80",105 % of control
same,T/C,"dose: 100.0 mg/kg/injection, schedule: Q01DX005 (ip), vehicle: saline with Tween-80",102 % of control
same,T/C,"dose: 200.0 mg/kg/injection, schedule: Q01DX005 (ip), vehicle: saline with Tween-80",105 % of control
CN(C)CCCN1C=CC(=C2C(=O)c3ccccc3C2=O)C=C1,T/C,[1],88 % of control
same,T/C,[2],86 % of control
same,T/C,"dose: 200.0 mg/kg/injection, schedule: Q01DX009 (ip), vehicle: Klucel (hydroxypropylcellulose) (HPC)",97 % of control
COC(=O)c1nc(N)nc(C(=O)OC)c1C(=O)Cc1ccccc1,T/C,[8],100 % of control
same,T/C,[9],103 % of control
CCOC(=O)c1cnc(NCCCCNc2ncc(C(=O)OCC)c(=O)[nH]2)[nH]c1=O,T/C,[3],98 % of control
same,T/C,[4],90 % of control
same,T/C,[5],90 % of control
CC1CN2CC(C)O[Si](CC[Si]34OC(C)CN(CC(C)O3)CC(C)O4)(O1)OC(C)C2 (stereo not drawn),T/C,[3],108 % of control
same,T/C,[4],106 % of control
same,T/C,[5],105 % of control
CCOC(=O)N1c2ccccc2C=CC1OCC (stereo not drawn),T/C,"dose: 6.0 mg/kg/injection, schedule: Q04DX003 (ip), vehicle: other",95 % of control
same,T/C,"dose: 12.0 mg/kg/injection, schedule: Q04DX003 (ip), vehicle: other",100 % of control
same,T/C,"dose: 25.0 mg/kg/injection, schedule: Q04DX003 (ip), vehicle: other",100 % of control
C=C1C(=O)OC2C=CCC12 (stereo not drawn),T/C,"dose: 3.13 mg/kg/injection, schedule: Q01DX009 (ip), vehicle: distilled water + Tween-80",99 % of control
same,T/C,[10],99 % of control
same,T/C,[11],100 % of control
same,T/C,[12],107 % of control
same,T/C,[13],107 % of control
CCOC1c2cc3c(cc2NC(=O)N1C)OCO3 (stereo not drawn),T/C,"dose: 37.5 mg/kg/injection, schedule: Q01DX009 (ip), vehicle: saline with Tween-80",97 % of control
same,T/C,"dose: 75.0 mg/kg/injection, schedule: Q01DX009 (ip), vehicle: saline with Tween-80",94 % of control
same,T/C,"dose: 150.0 mg/kg/injection, schedule: Q01DX009 (ip), vehicle: saline with Tween-80",100 % of control

# Reference: PubChem BioAssay AID330 (DTP/NCI, 2004)
